Results: patent publication US20150184166A1 (Uinversity of Iowa Research Foundation, priority 2012, published 2015)

Assays:
[1] = test system: Ndm (methylxanthine N-demethylase) with Ccr reductase
NdmB-His6 = NdmB-His6 (Pseudomonas putida, UniProt H9N290); assay: Kinetic parameters of NdmB-His6 with His6-NdmD; assay type: biochemical, Pseudomonas putida CBB5
Description: (§1) Methylxanthine N-demethylase activity assay contained, in 1-ml total volume, 0.5 mM methylxanthine, 1 mM NADH, 50 μM Fe(NH4)2(SO4)2, and an appropriate amount of NdmA-His6 or NdmB-His6 (7.4 μg-2.5 mg protein depending on substrate specificity) in 50 mM KPi buffer (pH 7.5). Approximately 4 U of partially purified reductase, prepared as described previously (Summers et al., 2011) or 59 U of purified His6-NdmD was added to reaction mixture. Catalase from bovine liver (4,000 U) was also added to reactions containing His6-NdmD. The reaction mixture was incubated at 30° C. with 300 rpm shaking on an incubating microplate shaker (VWR, Radnor, Pa.). Periodically, a small aliquot was sampled from the reaction mixture and mixed with equal volume of acetonitrile for quantifying concentrations of methylxanthines and N-demethylated products by HPLC. One unit of N-demethylase activity was defined as the consumption of one […] methylxanthine per minute.
(§2) Apparent kinetic parameters of NdmA-His6 and NdmB-His6 were determined by measuring the initial rate of disappearance (vo) of methylxanthines in 50 mM KPi buffer (pH 7.5) at 30° C. The initial substrate concentrations ([S]) used in these experiments were from 25 to 500 μM. Substrates were incubated with His6-NdmD plus either NdmA-His6 or NdmB-His6 under standard conditions for 15 minutes. At 1, 5, 10, and 15 minutes, samples were removed from the reaction mixtures to quantitate substrate concentrations by HPLC. Plots of substrate concentrations against time were used to determine the initial rates of disappearance of substrates which were linear over 15 minutes. The apparent kinetic parameters were determined from Michaelis-Menten plots of vo against [S] fitted with the equation

NdmC = assay: N-demethylation by NdmC fraction co-purified with reductase; assay type: biochemical, Pseudomonas putida CBB5
Text: This activity was neither associated with NdmA nor with NdmB. […] Cloning of NdmC has proven difficult; nevertheless based on the fact that purified His6-NdmD had no activity on 7-methylxanthine, we annotate orf 8 as aanother RO with highly specific N-7 demthylase activity.

His6-NdmD = His6-NdmD (Pseudomonas putida, UniProt H9N291); assay: N-demethylation by purified His6-NdmD alone; assay type: biochemical, Pseudomonas putida CBB5
Description: as §1

NdmA-His6 = target: T1, NdmA-His6 (Pseudomonas putida, UniProt H9N289); assay: Kinetic parameters of NdmA-His6 with His6-NdmD; assay type: biochemical, Pseudomonas putida CBB5
T1 sequence (H9N289 1-351): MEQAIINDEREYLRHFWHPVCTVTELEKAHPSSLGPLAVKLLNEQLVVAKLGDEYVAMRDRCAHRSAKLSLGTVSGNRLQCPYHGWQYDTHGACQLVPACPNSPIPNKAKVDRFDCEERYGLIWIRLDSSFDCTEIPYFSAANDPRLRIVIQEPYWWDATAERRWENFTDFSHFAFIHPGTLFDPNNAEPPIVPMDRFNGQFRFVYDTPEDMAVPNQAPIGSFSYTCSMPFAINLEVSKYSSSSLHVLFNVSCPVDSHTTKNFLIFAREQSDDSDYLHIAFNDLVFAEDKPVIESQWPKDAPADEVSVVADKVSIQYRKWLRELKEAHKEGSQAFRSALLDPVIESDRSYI
Description: as §1, §2

Ccr = Ccr (Pseudomonas putida, UniProt H9N291); assay: NAD(P)H:cytochrome c oxidoreductase (Ccr) activity; assay type: biochemical, Pseudomonas putida CBB5
Description: NADH:cytochrome c oxidoreductase (cytochrome c reductase, Ccr) activity was determined as described by Ueda et al. (1972). A typical 1-mL reaction contained 300 μM NADH, 87 μM bovine cytochrome c (type III; Sigma), and 1-20 μg CBB5 protein (depending on purity) in 50 mM KPi buffer. The activity was determined by monitoring the increase in absorbance at 550 nm due to reduction of […] cytochrome c at 30° C. An extinction coefficient of 21,000 M^−1 cm^−1 for reduced minus oxidized cytochrome c was used for quantitating the activity. One unit of activity was defined as one μmol of cytochrome c reduced per minute.

[2] = target: T2, Ndm, two-subunit N-demethylase component purified from Pseudomonas putida CBB5 (UniProt H9N289)
T2 sequence 1: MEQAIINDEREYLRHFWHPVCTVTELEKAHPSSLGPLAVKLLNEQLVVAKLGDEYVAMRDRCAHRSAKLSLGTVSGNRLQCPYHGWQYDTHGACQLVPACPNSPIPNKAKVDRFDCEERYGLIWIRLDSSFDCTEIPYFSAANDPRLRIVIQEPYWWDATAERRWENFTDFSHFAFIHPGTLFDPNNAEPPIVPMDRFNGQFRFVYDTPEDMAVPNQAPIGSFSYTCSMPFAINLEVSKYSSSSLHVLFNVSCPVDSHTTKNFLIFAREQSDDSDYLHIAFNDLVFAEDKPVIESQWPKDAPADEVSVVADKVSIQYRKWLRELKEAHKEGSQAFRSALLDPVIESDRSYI
T2 sequence 2: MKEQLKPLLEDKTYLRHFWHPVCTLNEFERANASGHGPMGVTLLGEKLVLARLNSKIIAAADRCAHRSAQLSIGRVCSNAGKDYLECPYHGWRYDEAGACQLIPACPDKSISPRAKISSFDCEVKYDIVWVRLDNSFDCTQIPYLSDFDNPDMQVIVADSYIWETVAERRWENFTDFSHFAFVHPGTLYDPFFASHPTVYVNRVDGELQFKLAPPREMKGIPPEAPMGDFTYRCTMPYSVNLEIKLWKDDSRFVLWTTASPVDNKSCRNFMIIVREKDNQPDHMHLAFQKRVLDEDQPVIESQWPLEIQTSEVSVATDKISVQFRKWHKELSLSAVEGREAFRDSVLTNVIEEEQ

[3] = target: T3, NdmB, 35 kDa subunit of N-demethylase Ndm purified from Pseudomonas putida CBB5 (Pseudomonas putida CBB5, UniProt H9N290 1-355); assay: gel filtration of purified native Ndm (single symmetric peak, about 240 kDa), fractions checked by SDS-PAGE
T3 construct: Native protein purified from CBB5; Rieske [2Fe-2S] non-heme iron oxygenase; also called 35 kDa-protein
T3 sequence (looked up): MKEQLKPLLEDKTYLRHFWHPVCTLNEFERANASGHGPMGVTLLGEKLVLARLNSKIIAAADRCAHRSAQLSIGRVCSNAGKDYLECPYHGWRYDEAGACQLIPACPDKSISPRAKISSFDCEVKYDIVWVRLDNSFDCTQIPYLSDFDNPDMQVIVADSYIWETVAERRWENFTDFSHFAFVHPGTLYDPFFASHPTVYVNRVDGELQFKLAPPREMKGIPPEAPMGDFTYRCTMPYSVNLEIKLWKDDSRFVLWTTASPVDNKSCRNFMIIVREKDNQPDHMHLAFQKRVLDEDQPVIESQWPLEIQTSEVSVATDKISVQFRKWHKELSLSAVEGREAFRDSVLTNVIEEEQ

[4] = substrate: Cn1c(=O)c2[nH]cnc2n(C)c1=O; assay: Kinetic parameters of NdmA-His6 with His6-NdmD; assay type: biochemical, Pseudomonas putida CBB5; conditions: other: NdmA-His6 plus His6-NdmD, pH 7.5, 30° C.
Description: as §1
Apparent kinetic parameters of NdmA-His6 and NdmB-His6 were determined by measuring the initial rate of disappearance (vo) of methylxanthines in 50 mM KPi buffer (pH 7.5) at 30° C. […] At 1, 5, 10, and 15 minutes, samples were removed from the reaction mixtures to quantitate substrate concentrations by HPLC. […] The apparent kinetic parameters were determined from Michaelis-Menten plots of vo against [S] fitted with the equation

NdmA-His6, H9N289 = target: T4, NdmA-His6, H9N289
T4 chain: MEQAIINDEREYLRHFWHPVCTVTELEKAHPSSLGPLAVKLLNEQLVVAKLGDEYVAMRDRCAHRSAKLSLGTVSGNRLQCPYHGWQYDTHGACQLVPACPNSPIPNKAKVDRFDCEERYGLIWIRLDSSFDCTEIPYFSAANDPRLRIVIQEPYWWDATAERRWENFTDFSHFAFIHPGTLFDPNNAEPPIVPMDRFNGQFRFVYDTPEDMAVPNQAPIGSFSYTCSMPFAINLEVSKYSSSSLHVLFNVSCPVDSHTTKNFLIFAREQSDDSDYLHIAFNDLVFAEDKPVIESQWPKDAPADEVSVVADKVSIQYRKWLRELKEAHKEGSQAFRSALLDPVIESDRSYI

NdmB-His6, H9N290 = target: T5, NdmB-His6, H9N290
T5 chain: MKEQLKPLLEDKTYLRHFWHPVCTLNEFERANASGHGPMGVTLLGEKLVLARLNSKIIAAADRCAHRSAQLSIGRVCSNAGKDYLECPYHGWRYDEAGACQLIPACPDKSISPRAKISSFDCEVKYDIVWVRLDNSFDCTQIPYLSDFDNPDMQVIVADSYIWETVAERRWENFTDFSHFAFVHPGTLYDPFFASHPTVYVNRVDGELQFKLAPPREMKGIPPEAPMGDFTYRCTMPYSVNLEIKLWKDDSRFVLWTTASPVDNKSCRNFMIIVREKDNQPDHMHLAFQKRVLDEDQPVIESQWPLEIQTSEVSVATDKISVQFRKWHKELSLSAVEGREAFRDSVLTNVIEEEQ

**Q.** For `Cn1cnc2[nH]c(=O)[nH]c(=O)c21` [7-Methylxanthine, 7-methylxanthine], which “product formed from paraxanthine” value ([1]; 90 minutes, 7.4 mU (7.4 units) of Ndm) is on record?
**A.** 126.9 ± 6.4 µM

**Q.** And the N-demethylation product present ([1]; from paraxanthine, after 13 minutes)?
**A.** Approximately 39.9 μM

**Q.** What about the Km ([1]; read-out: apparent KM, saturating Ccr, 50 μM Fe2+, 30° C., 50 mM KPi pH 7.5) of the same molecule?
**A.** 63.8 ± 7.5 µM

**Q.** What about the apparent kcat ([1]; saturating Ccr, 50 μM Fe2+, 30° C., 50 mM KPi pH 7.5) of the same molecule?
**A.** 1.58 ± 0.05 s⁻¹

**Q.** What about the “N-demethylation activity of NdmB” value (NdmB-His6) of the same molecule?
**A.** no activity

**Q.** And the Km (NdmB-His6; NdmB-His6 plus His6-NdmD, pH 7.5, 30° C.)?
**A.** ∞

**Q.** And the “N-demethylation by NdmC/reductase fraction” value (NdmC)?
**A.** specifically N-demethylated

**Q.** What about the “activity of purified His6-NdmD” value (His6-NdmD) of the same molecule?
**A.** no activity

**Q.** And the “N-demethylation activity of NdmA” value (NdmA-His6)?
**A.** inactive

**Q.** What about the Km (NdmA-His6; NdmA-His6 plus His6-NdmD, pH 7.5, 30° C.) of the same molecule?
**A.** ∞

**Q.** `NC(=O)C1=CN([C@@H]2O[C@H](COP(=O)(O)OP(=O)(O)OC[C@H]3O[C@@H](n4cnc5c(N)ncnc54)[C@H](OP(=O)(O)O)[C@@H]3O)[C@@H](O)[C@H]2O)C=CC1` [NADPH] was tested. Which “Ccr activity relative to that with NADH” value (Ccr) did it give?
**A.** 22%

**Q.** “Ccr, partially purified cytochrome c reductase component of Pseudomonas putida CBB5” was tested. Which N-demethylase activity [2] did it give?
**A.** No N-demethylase activity was observed when purified Ndm was assayed without the Ccr fraction

B1: NdmA, 40 kDa subunit of N-demethylase Ndm purified from Pseudomonas putida CBB5 (enzyme, UniProt H9N289 1-351, looked up)
chain: MEQAIINDEREYLRHFWHPVCTVTELEKAHPSSLGPLAVKLLNEQLVVAKLGDEYVAMRDRCAHRSAKLSLGTVSGNRLQCPYHGWQYDTHGACQLVPACPNSPIPNKAKVDRFDCEERYGLIWIRLDSSFDCTEIPYFSAANDPRLRIVIQEPYWWDATAERRWENFTDFSHFAFIHPGTLFDPNNAEPPIVPMDRFNGQFRFVYDTPEDMAVPNQAPIGSFSYTCSMPFAINLEVSKYSSSSLHVLFNVSCPVDSHTTKNFLIFAREQSDDSDYLHIAFNDLVFAEDKPVIESQWPKDAPADEVSVVADKVSIQYRKWLRELKEAHKEGSQAFRSALLDPVIESDRSYI
notes: Native protein purified from CBB5; Rieske [2Fe-2S] non-heme iron oxygenase; also called 40 kDa-protein
**Q.** Does B1 bind [3]?
**A.** binds

**Q.** What about the Km [4] of the same molecule?
**A.** 91. μM

B2: His6-NdmD (protein)
chain: HHHHHHSSGLVPRGSHMNKLDVNQWFPIATTEDLPKRHVFHATLLGQEMAIWRDDSGSVNAWENRCPHRGLRLTLGANTGNELRCQYHGWTYESGTGGCTFVPAHRDAPPPNAARVNTFPVREKHGFIWTTLGQPPGEPISILDDAQLVNAVKTNLHSVVIDADIDGVVSVLRQNLSAFIDVFGAASAEDLHLKSMLQDRGILVTRSGSIAIHFYMQRSTISKCVVHAQVLTPGRPGYELQKNYSYAMNVIRRAAEAVATDLISITDISDQTIEKLEVVRENMTKAPPTHYICEVVTRTQETGDINSYWLKPIGYPLPAFSPGMHISITTPEGSIRQYSLVNGPDERESFIIGVKKEIQSRGGSRSMHEDVKVGTQLKVTLPRNGFPLVQTRKHPILVAGGIGITPILCMAQALDQQGSSYEIHYFARAFEHVPFQDRLTALGDRLNVHLGLGPDETRAKLPDIMEIHNAQDVDVYTCGPQPMIETVSAVALAHGIAEESIRFEFFSKKNDVPVSDEEYEVELKKTGQIFTVSPGSTLLQACLDNDVRIEASCEQGVCGTCITPVVSGDLEHHDTYLSKKERESGKWIMPCVSRCKSKKIVLDL
**Q.** B2 was tested. Which “N-demethylation of caffeine to theobromine (HPLC)” value (NdmA-His6, H9N289) did it give?
**A.** when NdmA-His6 was incubated with His6-NdmD, caffeine, NADH, and exogenous Fe^2+, caffeine was stoichiometrically demethylated at N1 to theobromine

**Q.** What about the “N-demethylation of theobromine to 7-methylxanthine (HPLC)” value (NdmB-His6, H9N290) of the same molecule?
**A.** NdmB-His6 with His6-NdmD, theobromine, NADH, and Fe^2+ resulted in stoichiometric demethylation at N3 of theobromine to 7-methylxanthine
